Measurements from PubChem BioAssay AID248 (DTP/NCI, 2004).
Where “and” joins values, the source holds several entries; their conditions need not be identical. Equal values may be shown once. Inconclusive results and toxic doses are left out. No stated cut-off is given here; in the data, active means T/C of 150% or more; inactive means T/C below 125%.

System: L1210 leukemia ip in BDF1 mice, survival T/C
Test: NCI In Vivo Anticancer Drug Screen. Data for tumor model L1210 Leukemia (intraperitoneal) in B6D2F1 (BDF1) mice
Conditions: endpoint: mean survival time, higher = longer survival
How it was run: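 Transplanted-tumor mice were given test agent; controls received vehicle only. Survival readings from the two groups were divided (treated over control).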

[1] = dose: 100.0 mg/kg/injection, schedule: Q01DX001 (ip), vehicle: saline
[2] = dose: 200.0 mg/kg/injection, schedule: Q01DX001 (ip), vehicle: saline
[3] = dose: 400.0 mg/kg/injection, schedule: Q01DX001 (ip), vehicle: saline
[4] = dose: 100.0 mg/kg/injection, schedule: Q04DX002 (ip), vehicle: saline with Tween-80
[5] = dose: 200.0 mg/kg/injection, schedule: Q04DX002 (ip), vehicle: saline with Tween-80
[6] = dose: 100.0 mg/kg/injection, schedule: Q04DX003 (ip), vehicle: Klucel (hydroxypropylcellulose) (HPC)
[7] = dose: 200.0 mg/kg/injection, schedule: Q04DX003 (ip), vehicle: Klucel (hydroxypropylcellulose) (HPC)
[8] = dose: 50.0 mg/kg/injection, schedule: Q01DX009 (ip), vehicle: saline with Tween-80
[9] = dose: 100.0 mg/kg/injection, schedule: Q01DX009 (ip), vehicle: saline with Tween-80
[10] = dose: 50.0 mg/kg/injection, schedule: Q01DX001 (ip), vehicle: saline
[11] = dose: 400.0 mg/kg/injection, schedule: Q04DX003 (ip), vehicle: Klucel (hydroxypropylcellulose) (HPC)
[12] = dose: 200.0 mg/kg/injection, schedule: Q04DX003 (ip), vehicle: saline with Tween-80

Measured: T/C

CCCCc1ccncc1
inactive: dose: 5.0 mg/kg/injection, schedule: Q01DX001 (ip), vehicle: saline 102 % of control | dose: 10.0 mg/kg/injection, schedule: Q01DX001 (ip), vehicle: saline 100 % of control | dose: 20.0 mg/kg/injection, schedule: Q01DX001 (ip), vehicle: saline 100 % of control | dose: 40.0 mg/kg/injection, schedule: Q01DX001 (ip), vehicle: saline 90 % of control | dose: 80.0 mg/kg/injection, schedule: Q01DX001 (ip), vehicle: saline 93 % of control | [1] 98 % of control

CSc1ncnc2c1ncn2N(CCCCN=C=S)C(C)=O
inactive: dose: 12.5 mg/kg/injection, schedule: Q01DX001 (ip), vehicle: saline with Tween-80 107 % of control | dose: 25.0 mg/kg/injection, schedule: Q01DX001 (ip), vehicle: saline with Tween-80 98 % of control | dose: 50.0 mg/kg/injection, schedule: Q01DX001 (ip), vehicle: saline with Tween-80 103 % of control

O=C(O)c1cc(O)c2c(c1)C(C1c3cc(C(=O)O)cc(O)c3C(=O)c3c(OC4OC(CO)C(O)C(O)C4O)cccc31)c1cccc(OC3OC(CO)C(O)C(O)C3O)c1C2=O (configuration not stated)
inactive: [1] 98 % of control and 101 % of control | [2] 97 % of control | [3] 103 % of control and 106 % of control

O=C(O)c1ccc(CCl)cc1
inactive: [4] 108 % of control | [5] 105 % of control

CCCCCCCCCCCC(c1ccccc1)[N+](C)(C)C (configuration not stated)
inactive: dose: 0.5 mg/kg/injection, schedule: Q01DX001 (ip), vehicle: saline 103 % of control | dose: 1.0 mg/kg/injection, schedule: Q01DX001 (ip), vehicle: saline 94 % of control | dose: 1.0 mg/kg/injection, schedule: Q01DX009 (ip), vehicle: saline 91 % of control | dose: 2.0 mg/kg/injection, schedule: Q01DX001 (ip), vehicle: saline 100 % of control | dose: 2.0 mg/kg/injection, schedule: Q01DX009 (ip), vehicle: saline 109 % of control | dose: 4.0 mg/kg/injection, schedule: Q01DX001 (ip), vehicle: saline 96 % of control | dose: 4.0 mg/kg/injection, schedule: Q01DX009 (ip), vehicle: saline 110 % of control | dose: 8.0 mg/kg/injection, schedule: Q01DX001 (ip), vehicle: saline 97 % of control

NC(=O)c1ccc(Cl)c([N+](=O)[O-])c1
inactive: [6] 110 % of control | [7] 109 % of control

OC1C(Cl)(Cl)CCCC1(Cl)Cl
inactive: [8] 90 % of control | [9] 94 % of control | dose: 200.0 mg/kg/injection, schedule: Q01DX009 (ip), vehicle: saline with Tween-80 98 % of control

CN1C(=O)C(Br)=C(Br)C1(O)c1cccnc1 (configuration not stated)
inactive: [10] 104 % of control | [1] 104 % of control | [2] 95 % of control | [3] 98 % of control

O=c1oc2ccccc2cc1P(=O)(O)O
inactive: [10] 91 % of control | [1] 95 % of control | [2] 95 % of control | [3] 97 % of control

CC(=O)C1=CCCCC1
inactive: [6] 96 % of control | [7] 105 % of control | [11] 93 % of control

C=CCN(CC=C)/N=N/c1nc[nH]c1C(N)=O
inactive: dose: 37.5 mg/kg/injection, schedule: Q01DX009 (ip), vehicle: saline with Tween-80 104 % of control | dose: 75.0 mg/kg/injection, schedule: Q01DX009 (ip), vehicle: saline with Tween-80 100 % of control | dose: 150.0 mg/kg/injection, schedule: Q01DX009 (ip), vehicle: saline with Tween-80 98 % of control

CC1(C)C(=O)N(Cl)C(=O)N1Cl
inactive: dose: 3.12 mg/kg/injection, schedule: Q01DX009 (ip), vehicle: Klucel (hydroxypropylcellulose) (HPC) 90 % of control | dose: 3.13 mg/kg/injection, schedule: Q01DX001 (ip), vehicle: saline sonified 90 % of control | dose: 3.13 mg/kg/injection, schedule: Q01DX009 (ip), vehicle: saline 99 % of control | dose: 6.25 mg/kg/injection, schedule: Q01DX001 (ip), vehicle: saline sonified 97 % of control | dose: 6.25 mg/kg/injection, schedule: Q01DX009 (ip), vehicle: Klucel (hydroxypropylcellulose) (HPC) 90 % of control | dose: 6.25 mg/kg/injection, schedule: Q01DX009 (ip), vehicle: saline 95 % of control | dose: 12.5 mg/kg/injection, schedule: Q01DX001 (ip), vehicle: saline sonified 95 % of control | dose: 12.5 mg/kg/injection, schedule: Q01DX009 (ip), vehicle: saline 99 % of control | dose: 12.5 mg/kg/injection, schedule: Q04DX002 (ip), vehicle: Klucel (hydroxypropylcellulose) (HPC) 97 % of control | dose: 25.0 mg/kg/injection, schedule: Q01DX009 (ip), vehicle: Klucel (hydroxypropylcellulose) (HPC) 91 % of control | dose: 25.0 mg/kg/injection, schedule: Q04DX002 (ip), vehicle: Klucel (hydroxypropylcellulose) (HPC) 94 % of control

CC(=O)N[C@H](CO)[C@H](O)c1ccc([N+](=O)[O-])cc1
inactive: dose: 100.0 mg/kg/injection, schedule: Q04DX003 (ip), vehicle: saline sonified 98 % of control | dose: 200.0 mg/kg/injection, schedule: Q04DX003 (ip), vehicle: saline sonified 104 % of control | dose: 400.0 mg/kg/injection, schedule: Q04DX003 (ip), vehicle: saline sonified 103 % of control

Nc1nc(N)c2ncn(C3OC(CO)C(O)C3O)c2n1 (configuration not stated)
inactive: [1] 102 % of control | [2] 115 % of control

N#CC1C(=O)NC(=O)C(C#N)C12CCCC(C(F)(F)F)C2 (configuration not stated)
inactive: [10] 104 % of control | [1] 98 % of control | [2] 106 % of control | [3] 98 % of control

CC(NCCOc1ccccc1)c1ccccc1 (configuration not stated)
inactive: [4] 108 % of control | [5] 105 % of control

CS(=O)(=O)OCC1CCCCO1 (configuration not stated)
inactive: dose: 100.0 mg/kg/injection, schedule: Q01DX009 (ip), vehicle: Klucel (hydroxypropylcellulose) (HPC) 91 % of control | [6] 101 % of control | dose: 200.0 mg/kg/injection, schedule: Q01DX009 (ip), vehicle: Klucel (hydroxypropylcellulose) (HPC) 102 % of control | [7] 102 % of control | dose: 400.0 mg/kg/injection, schedule: Q01DX009 (ip), vehicle: Klucel (hydroxypropylcellulose) (HPC) 106 % of control | [11] 111 % of control

CN=C(NN)NCCO
inactive: dose: 175.0 mg/kg/injection, schedule: Q01DX001 (ip), vehicle: saline 96 % of control | dose: 265.0 mg/kg/injection, schedule: Q01DX001 (ip), vehicle: saline 96 % of control | [3] 110 % of control | dose: 600.0 mg/kg/injection, schedule: Q01DX001 (ip), vehicle: saline 98 % of control

Cn1nnnc1CCO
inactive: dose: 100.0 mg/kg/injection, schedule: Q01DX001 (ip), vehicle: acetone 94 % of control | dose: 200.0 mg/kg/injection, schedule: Q01DX001 (ip), vehicle: acetone 97 % of control | dose: 400.0 mg/kg/injection, schedule: Q01DX001 (ip), vehicle: acetone 97 % of control

CC(=O)C(C(=O)NCc1ccccc1)C(c1cccc([N+](=O)[O-])c1)C(C(C)=O)C(=O)NCc1ccccc1 (configuration not stated)
inactive: dose: 25.6 mg/kg/injection, schedule: Q04DX002 (ip), vehicle: saline with Tween-80 95 % of control | dose: 64.0 mg/kg/injection, schedule: Q04DX002 (ip), vehicle: saline with Tween-80 95 % of control | dose: 160.0 mg/kg/injection, schedule: Q04DX002 (ip), vehicle: saline with Tween-80 95 % of control | [12] 87 % of control | dose: 400.0 mg/kg/injection, schedule: Q04DX002 (ip), vehicle: saline with Tween-80 95 % of control | dose: 400.0 mg/kg/injection, schedule: Q04DX003 (ip), vehicle: saline with Tween-80 87 % of control

NC(=O)NC(=O)/C=C/C(=O)O
inactive: [8] 100 % of control | [9] 94 % of control | dose: 100.0 mg/kg/injection, schedule: Q04DX003 (ip), vehicle: saline with Tween-80 92 % of control | [12] 90 % of control

c1cc2ccsc2cn1
inactive: dose: 12.5 mg/kg/injection, schedule: Q01DX009 (ip), vehicle: saline with Tween-80 104 % of control | dose: 12.5 mg/kg/injection, schedule: Q04DX003 (ip), vehicle: saline with Tween-80 110 % of control | dose: 25.0 mg/kg/injection, schedule: Q01DX009 (ip), vehicle: saline with Tween-80 103 % of control | dose: 25.0 mg/kg/injection, schedule: Q04DX003 (ip), vehicle: saline with Tween-80 104 % of control | [8] 102 % of control | dose: 50.0 mg/kg/injection, schedule: Q04DX003 (ip), vehicle: saline with Tween-80 103 % of control
